# Literature values as cited in PubChem BioAssay AID1259409 (Chemical Carcinogenesis Research Information System (CCRIS), 2018).
# System: rodent chemically induced tumor inhibition, incidence and multiplicity
# Assay: CCRIS tumor inhibitor studies
# Settings: Route [Inhibitor]: ORAL, Species: RAT
smiles,measurement,setting,value
C=CC1=C(C)C2=CC3=NC(=C(CC(=O)O)C4=NC(=C(C)C4=C(O)O)C=c4[nH]c(c(C)c4CC)=CC1=N2)C(CCC(=O)O)C3C (stereo not given),"tumour outcome (control, treated, inhibition, significance)","Carcinogen: 1,2-DIMETHYLHYDRAZINE [540-73-8], Dose [Inhibitor]: 0, 0.001% (W/V BASED ON TOTAL CHLORINS) IN DRINKING WATER BEGINNING 1 WK POST CARCINOGEN TREATMENT FOR THE DURATION STUD, Strain/Sex: F344/MALE, Target Tissue: Type of Lesion: COLON: TUMOR, Dose [Carcinogen]: 20 MG/KG FOR FIRST 5 WK (STUDY DURATION: 52 WK), Promoter: NONE","20/23 (87%), 18/20 (90%), -3.4%, not significant"
same,"tumour outcome (control, treated, inhibition, significance)","Carcinogen: 1,2-DIMETHYLHYDRAZINE [540-73-8], Dose [Inhibitor]: 0, 0.001% (W/V BASED ON TOTAL CHLORINS) IN DRINKING WATER BEGINNING 1 WK POST CARCINOGEN TREATMENT FOR THE DURATION STUD, Strain/Sex: F344/MALE, Target Tissue: Type of Lesion: SMALL INTESTINE: TUMOR, Dose [Carcinogen]: 20 MG/KG BW/WK FOR FIRST 5 WK (STUDY DURATION: 52 WK), Promoter: NONE","12/23 (52%), 6/20 (30%), 42%, not significant"
same,"tumour outcome (control, treated, inhibition, significance)","Carcinogen: 1,2-DIMETHYLHYDRAZINE [540-73-8], Dose [Inhibitor]: 0, 0.01% (W/V BASED ON TOTAL CHLORINS) IN DRINKING WATER BEGINNING 1 WK POST CARCINOGEN TREATMENT FOR THE DURATION STUDY, Strain/Sex: F344/MALE, Target Tissue: Type of Lesion: SMALL INTESTINE: TUMOR, Dose [Carcinogen]: 20 MG/KG BW/WK FOR FIRST 5 WK (STUDY DURATION: 52 WK), Promoter: NONE","12/23 (52%), 11/20 (55%), -6%, not significant"
same,"tumour outcome (control, treated, inhibition, significance)","Carcinogen: 1,2-DIMETHYLHYDRAZINE [540-73-8], Dose [Inhibitor]: 0, 0.1% (W/V BASED ON TOTAL CHLORINS) IN DRINKING WATER BEGINNING 1 WK POST CARCINOGEN TREATMENT FOR THE DURATION STUDY, Strain/Sex: F344/MALE, Target Tissue: Type of Lesion: SMALL INTESTINE: TUMOR, Dose [Carcinogen]: 20 MG/KG BW/WK FOR FIRST 5 WK (STUDY DURATION: 52 WK), Promoter: NONE","12/23 (52%), 5/20 (25%), 52%, not significant"
same,"tumour outcome (control, treated, inhibition, significance)","Carcinogen: 1,2-DIMETHYLHYDRAZINE [540-73-8], Strain/Sex: F344/MALE, Target Tissue: Type of Lesion: COLON: TUMOR, Dose [Carcinogen]: 20 MG/KG FOR FIRST 5 WK (STUDY DURATION: 52 WK), Promoter: NONE","20/23 (87%), 20/20 (100%), -15%, not significant"
same,"tumour outcome (control, treated, inhibition, significance)","Carcinogen: 2-AMINO-1-METHYL-6-PHENYL-1H-IMIDAZO[4,5-B]PYRID INE, 105650-23-5, Dose [Inhibitor]: 0, 1% IN THE DIET FOR 52 WK (STUDY DURATION: 52 WK), Strain/Sex: F344/FEMALE, Target Tissue: Type of Lesion: MAMMARY GLAND: ADENOCARCINOMA, Dose [Carcinogen]: 0.02% IN THE DIET FOR 52 WK, Promoter: NONE USED","8/20 (40%), 3/20 (15%), 63%, not significant"
same,"tumour outcome (control, treated, inhibition, significance)","Carcinogen: 2-AMINO-1-METHYL-6-PHENYL-1H-IMIDAZO[4,5-B]PYRID INE, 105650-23-5, Dose [Inhibitor]: 0, 1% IN THE DIET FOR 52 WK (STUDY DURATION: 52 WK), Strain/Sex: F344/FEMALE, Target Tissue: Type of Lesion: MAMMARY GLAND: FIBROADENOMA, Dose [Carcinogen]: 0.02% IN THE DIET FOR 52 WK, Promoter: NONE USED","2/20 (10%), 0/20 (0%), 100%, not significant"
same,"tumour outcome (control, treated, inhibition, significance)","Carcinogen: 2-AMINO-3-METHYLIMIDAZO[4,5-F]QUINOLINE [76180-96-6], Dose [Inhibitor]: 0, 0.001% (W/V BASED ON TOTAL CHLORINS) IN DRINKING WATER BEGINNING 1 WK POST CARCINOGEN TREATMENT FOR THE DURATION STUD, Strain/Sex: F344/MALE, Target Tissue: Type of Lesion: COLON: TUMOR, Dose [Carcinogen]: 0.03% IN DIET FOR FIRST 5 WK (STUDY DURATION: 52 WK), Promoter: NONE","2/22 (9%), 2/20 (10%), -11%, not significant"
same,"tumour outcome (control, treated, inhibition, significance)","Carcinogen: 2-AMINO-3-METHYLIMIDAZO[4,5-F]QUINOLINE [76180-96-6], Dose [Inhibitor]: 0, 0.001% (W/V BASED ON TOTAL CHLORINS) IN DRINKING WATER BEGINNING 1 WK POST CARCINOGEN TREATMENT FOR THE DURATION STUD, Strain/Sex: F344/MALE, Target Tissue: Type of Lesion: LIVER: TUMOR, Dose [Carcinogen]: 0.03% IN DIET FOR FIRST 5 WK (STUDY DURATION: 52 WK), Promoter: NONE","16/22 (73%), 12/20 (60%), 18%, not significant"
same,"tumour outcome (control, treated, inhibition, significance)","Carcinogen: 2-AMINO-3-METHYLIMIDAZO[4,5-F]QUINOLINE [76180-96-6], Dose [Inhibitor]: 0, 0.001% (W/V BASED ON TOTAL CHLORINS) IN DRINKING WATER BEGINNING 1 WK POST CARCINOGEN TREATMENT FOR THE DURATION STUD, Strain/Sex: F344/MALE, Target Tissue: Type of Lesion: SKIN: TUMOR, Dose [Carcinogen]: 0.03% IN DIET FOR FIRST 5 WK (STUDY DURATION: 52 WK), Promoter: NONE","7/22 (32%), 5/20 (25%), 22%, not significant"
same,outcome,"Carcinogen: 2-AMINO-3-METHYLIMIDAZO[4,5-F]QUINOLINE [76180-96-6], Dose [Inhibitor]: 0, 0.001% (W/V BASED ON TOTAL CHLORINS) IN DRINKING WATER BEGINNING 1 WK POST CARCINOGEN TREATMENT FOR THE DURATION STUD, Strain/Sex: F344/MALE, Target Tissue: Type of Lesion: SMALL INTESTINE: TUMOR, Dose [Carcinogen]: 0.03% IN DIET FOR FIRST 5 WK (STUDY DURATION: 52 WK), Promoter: NONE","0/22 (0%), 1/20 (5%), -%, not significant"
same,"tumour outcome (control, treated, inhibition, significance)","Carcinogen: 2-AMINO-3-METHYLIMIDAZO[4,5-F]QUINOLINE [76180-96-6], Dose [Inhibitor]: 0, 0.001% (W/V BASED ON TOTAL CHLORINS) IN DRINKING WATER BEGINNING 1 WK POST CARCINOGEN TREATMENT FOR THE DURATION STUD, Strain/Sex: F344/MALE, Target Tissue: Type of Lesion: ZYMBAL'S GLAND: TUMOR, Dose [Carcinogen]: 0.03% IN DIET FOR FIRST 5 WK (STUDY DURATION: 52 WK), Promoter: NONE","5/22 (23%), 3/20 (15%), 35%, not significant"
same,"tumour outcome (control, treated, inhibition, significance)","Carcinogen: 2-AMINO-3-METHYLIMIDAZO[4,5-F]QUINOLINE [76180-96-6], Dose [Inhibitor]: 0, 0.01% (W/V BASED ON TOTAL CHLORINS) IN DRINKING WATER BEGINNING 1 WK POST CARCINOGEN TREATMENT FOR THE DURATION STUDY, Strain/Sex: F344/MALE, Target Tissue: Type of Lesion: COLON: TUMOR, Dose [Carcinogen]: 0.03% IN DIET FOR FIRST 5 WK (STUDY DURATION: 52 WK), Promoter: NONE","2/22 (9%), 2/20 (10%), -11%, not significant"
same,"tumour outcome (control, treated, inhibition, significance)","Carcinogen: 2-AMINO-3-METHYLIMIDAZO[4,5-F]QUINOLINE [76180-96-6], Dose [Inhibitor]: 0, 0.01% (W/V BASED ON TOTAL CHLORINS) IN DRINKING WATER BEGINNING 1 WK POST CARCINOGEN TREATMENT FOR THE DURATION STUDY, Strain/Sex: F344/MALE, Target Tissue: Type of Lesion: LIVER: TUMOR, Dose [Carcinogen]: 0.03% IN DIET FOR FIRST 5 WK (STUDY DURATION: 52 WK), Promoter: NONE","16/22 (73%), 10/20 (50%), 31.5%, not significant"
same,"tumour outcome (control, treated, inhibition, significance)","Carcinogen: 2-AMINO-3-METHYLIMIDAZO[4,5-F]QUINOLINE [76180-96-6], Dose [Inhibitor]: 0, 0.01% (W/V BASED ON TOTAL CHLORINS) IN DRINKING WATER BEGINNING 1 WK POST CARCINOGEN TREATMENT FOR THE DURATION STUDY, Strain/Sex: F344/MALE, Target Tissue: Type of Lesion: SKIN: TUMOR, Dose [Carcinogen]: 0.03% IN DIET FOR FIRST 5 WK (STUDY DURATION: 52 WK), Promoter: NONE","7/22 (32%), 7/20 (35%), -9%, not significant"
